Target: T1, ER (Homo sapiens, UniProt P03372)
T1 construct: transfected in MCF7 cells (containing endogenous ER); endogenous in cells; host or cells: MCF7 cells
T1 sequence (P03372 1-595): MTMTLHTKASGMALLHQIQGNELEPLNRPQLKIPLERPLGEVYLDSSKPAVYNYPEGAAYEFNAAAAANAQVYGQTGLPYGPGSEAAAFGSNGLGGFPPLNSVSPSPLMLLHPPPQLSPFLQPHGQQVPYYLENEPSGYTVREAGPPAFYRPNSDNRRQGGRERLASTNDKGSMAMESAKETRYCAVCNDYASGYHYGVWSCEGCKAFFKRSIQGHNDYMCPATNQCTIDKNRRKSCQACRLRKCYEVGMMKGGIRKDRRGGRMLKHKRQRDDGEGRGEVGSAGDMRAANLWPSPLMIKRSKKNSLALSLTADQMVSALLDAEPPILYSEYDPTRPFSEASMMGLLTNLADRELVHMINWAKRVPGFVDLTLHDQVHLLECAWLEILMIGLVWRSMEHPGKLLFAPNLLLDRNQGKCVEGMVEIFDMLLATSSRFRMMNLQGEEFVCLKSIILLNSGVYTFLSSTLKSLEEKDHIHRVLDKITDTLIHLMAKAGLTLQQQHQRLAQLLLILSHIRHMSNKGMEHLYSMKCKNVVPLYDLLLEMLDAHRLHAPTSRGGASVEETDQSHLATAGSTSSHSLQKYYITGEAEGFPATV
Experiment: ER transcription assay (MCF7 cells), ERE-luciferase reporter
Assay type: cell-based
Conditions: MCF7 cells, ER reporter gene, 0.1 nM 17β estradiol, 24 hours; read-out: MCF7 IC50 (inflection point of the inhibition of transcription in MCF7 cells)
From the text: ER Transcription Assay (MCF7 Cells)
The ER transcription assay is a reporter assay that is based on the ability of ER to induce transcription from a luciferase reporter gene containing estrogen response elements (EREs) in the promoter/enhancer region. When the reporter gene is transfected in MCF7 cells (containing endogenous ER), transcription is reflected by the level of luciferase expression.
A day before transfection, cells are split into a T75 flask at a cell density of 300,000 cells/mL (10 mL total) and allowed to attach overnight in a humidified CO2 incubator at 37° C.
Approximately 20 ug DNA is mixed in OptiMEM (Invitrogen) to a total volume of 650 μL. Following incubation, the OptiMEM-DNA mixture is added to the OptiMEM-Lipofectin mix and incubated for 15 minutes at 37° C. The DNA-Lipofectin mixture is then added directly to the T75 flask and the flask is returned to the incubator.
After overnight incubation, compound is added to individual wells of a 96-well plate in a 10 μL volume of media at 10× concentration along with 17β estradiol whose final concentration is 0.1 nM. Normally, DMSO (used as a vehicle) is included to achieve a final concentration of 0.1% when added to the cells. Transfected cells are trypsinized, resuspended in DMEM/F12/10% charcoal-stripped serum and added to the 96-well plate at 25,000 cells/well in 90 μL of media. The plate is then returned to the incubator for 24 hours.
After incubation with compounds for 24 hours, Firefly and Renilla luciferase activities are measured to determine ER transcriptional activity. Media is removed from 96-well plates by decanting and blotting on paper towels.
One second total read time after a one second delay.
One second total read time after one second delay. If Firefly luciferase signal is high, Renilla assay must be done an hour after the Firefly assay due to incomplete squelching of Firefly signal.
The data describing the antagonist and degradation properties for the examples is compiled in table 10. The column titled MCF7 IC50 reports the inflection point of the inhibition of transcription in MCF7 cells as described above. Percentage ERα remaining reports the remaining ERα protein measured at 10 μM concentration of the ligand as described above. The column ERα IC50 reports the inflection point of the degradation in response to the ligand concentration.

Compound | IC50 [nM]
O=C(O)/C=C/c1ccc(Oc2c(-c3ccccc3Cl)sc3cc(O)ccc23)cc1 [Example 9, (E)-3-(4-((2-(2-chlorophenyl)-6-hydroxybenzo[b]-thiophen-3-yl)oxy)phenyl)-acrylic acid] | 407
Cc1ccccc1-c1sc2cc(O)ccc2c1Oc1ccc(/C=C/C(=O)O)cc1 [Example 5, (E)-3-(4-((6-hydroxy-2-(o-tolyl)benzo-[b]thiophen-3-yl)oxy)-phenyl)acrylic acid] | 89
O=C(O)/C=C/c1ccc(Oc2c(-c3ccc(C(F)(F)F)cc3C(F)(F)F)sc3cc(O)ccc23)cc1 [Example 11, (E)-3-(4-((2-(2,4-bis(trifluoromethyl)-phenyl)-6-hydroxy-benzo[b]thiophen-3-yl)oxy)phenyl)-acrylic acid] | 53
Cc1cc(/C=C/C(=O)O)ccc1Oc1c(-c2ccc(O)cc2)sc2cc(O)ccc12 [Example 57, (E)-3-(4-((6-hydroxy-2-(4-hydroxyphenyl)-benzo[b]thiophen-3-yl)oxy)-3-methylphenyl)acrylic acid] | 1030
CC(=O)c1ccccc1-c1sc2cc(O)ccc2c1Oc1ccc(/C=C/C(=O)O)cc1 [Example 19, (E)-3-(4-((2-(2-acetylphenyl)-6-hydroxybenzo[b]-thiophen-3-yl)oxy)phenyl)-acrylic acid] | 218
CCOC(=O)/C=C/c1ccc(Oc2c(-c3ccc(O)cc3)sc3cc(O)ccc23)cc1C [Example 34, (E)-ethyl 3-(4-((6-hydroxy-2-(4-hydroxyphenyl)benzo[b]-thiophen-3-yl)oxy)-2-methylphenyl)acrylate] | 48
O=C(/C=C/c1ccc(Oc2c(-c3ccc(O)cc3)sc3cc(O)ccc23)cc1)NCCC(F)(F)F [Example 31, (E)-3-(4-((6-hydroxy-2-(4-hydroxyphenyl)benzo[b]thiophen-3-yl)oxy)phenyl)-N-(3,3,3-trifluoropropyl)acrylamide] | 10
C/C(=C\c1ccc(Oc2c(-c3ccc(O)cc3)sc3cc(O)ccc23)cc1)C(=O)O [Example 28, (E)-3-(4-((6-hydroxy-2-(4-hydroxyphenyl)benzo[b]thiophen-3-yl)oxy)phenyl)-2-methylacrylic acid] | 886
Cc1cccc(-c2sc3cc(O)ccc3c2Oc2ccc(/C=C/C(=O)O)cc2)c1C [Example 13, (E)-3-(4-((2-(2,3-dimethylphenyl)-6-hydroxybenzo[b]-thiophen-3-yl)oxy)phenyl)-acrylic acid] | 151
COC(=O)/C=C/c1ccc(Oc2c(-c3ccc(O)cc3)sc3c(F)c(O)c(F)cc23)cc1 [Example 37, (E)-methyl 3-(4-((5,7-difluoro-6-hydroxy-2-(4-hydroxyphenyl)-benzo[b]thiophen-3-yl)oxy)phenyl)acrylate] | 41
O=C(O)/C=C/c1ccc(Oc2c(-c3ccc(O)c(F)c3)sc3cc(O)ccc23)cc1 [Example 40, (E)-3-(4-((2-(3-fluoro-4-hydroxyphenyl)-6-hydroxybenzo[b]thiophen-3-yl)oxy)phenyl)acrylic acid] | 424
Cn1nnnc1/C=C/c1ccc(Oc2c(-c3ccc(F)cc3)sc3cc(O)ccc23)cc1 [Example 52, (E)-2-(4-fluorophenyl)-3-(4-(2-(1-methyl-1H-tetrazol-5-yl)vinyl)phenoxy)benzo [b]thiophen-6-ol] | 5980
CC(C)c1ccccc1-c1sc2cc(O)ccc2c1Oc1ccc(/C=C/C(=O)O)cc1 [Example 4, (E)-3-(4-((6-hydroxy-2-(2-isopropylphenyl)benzo[b]thiophen-3-yl)oxy)phenyl)acrylic acid] | 6
O=C(O)/C=C/c1ccc(Oc2c(-c3ccccc3C(F)(F)F)sc3cc(O)ccc23)cc1 [Example 8, (E)-3-(4-((6-hydroxy-2-(2-(trifluoromethyl)-phenyl)benzo[b]-thiophen-3-yl)oxy)phenyl)-acrylic acid] | 23
Cc1cc(F)ccc1-c1sc2cc(O)ccc2c1Oc1ccc(/C=C/c2n[nH]c(=O)o2)cc1 [Example 48, (E)-5-(4-((2-(4-fluoro-2-methylphenyl)-6-hydroxybenzo[b]thiophen-3-yl)oxy)styryl)-1,3,4-oxadiazol-2(3H)-one] | 422
Cc1ccc(C)c(-c2sc3cc(O)ccc3c2Oc2ccc(/C=C/C(=O)O)cc2)c1 [Example 14, (E)-3-(4-((2-(2,5-dimethylphenyl)-6-hydroxybenzo[b]-thiophen-3-yl)oxy)phenyl)-acrylic acid] | 238
Cc1cc(C(F)(F)F)ccc1-c1sc2cc(O)ccc2c1Oc1ccc(/C=C/C(=O)O)cc1 [Example 10, (E)-3-(4-((6-hydroxy-2-(2-methyl-4-(tri-fluoromethyl)phenyl)-benzo[b]thiophen-3-yl)oxy)phenyl)acrylic acid] | 207
CCOC(=O)/C=C/c1ccc(Oc2c(-c3ccc(O)cc3)sc3cc(O)ccc23)c(C)c1 [Example 35, (E)-ethyl 3-(4-((6-hydroxy-2-(4-hydroxyphenyl)benzo[b]-thiophen-3-yl)oxy)-3-methylphenyl)acrylate] | 103
O=C(O)/C=C/c1ccc(Oc2c(-c3ccccc3)sc3cc(O)ccc23)cc1 [Example 60, (E)-3-(4-((6-hydroxy-2-phenylbenzo[b]thiophen-3-yl)oxy)phenyl)-acrylic acid] | 2310
O=C(O)/C=C/c1ccc(Oc2c(-c3ccccc3[N+](=O)[O-])sc3cc(O)ccc23)cc1 [Example 21, (E)-3-(4-((6-hydroxy-2-(2-nitrophenyl)-benzo[b]thiophen-3-yl)oxy)phenyl)-acrylic acid] | 313
CNC(=O)/C=C/c1ccc(Oc2c(-c3ccc(F)cc3)sc3cc(O)ccc23)cc1 [Example 67, (E)-3-(4-((2-(4-fluorophenyl)-6-hydroxybenzo[b]thiophen-3-yl)oxy)phenyl)-N-methylacrylamide] | 373
O=C(O)/C=C/c1ccc(Oc2c(-c3ccc(Cl)cc3)sc3cc(O)ccc23)cc1 [Example 6, (E)-3-(4-((2-(4-chlorophenyl)-6-hydroxybenzo[b]-thiophen-3-yl)oxy)phenyl)-acrylic acid] | 3100
Cc1cc(F)ccc1-c1sc2cc(O)ccc2c1Oc1ccc(/C=C/c2nnnn2C)cc1 [Example 51, (E)-2-(4-fluoro-2-methylphenyl)-3-(4-(2-(1-methyl-1H-tetrazol-5-yl)vinyl)phenoxy)-benzo[b]thiophen-6-ol] | 61
O=C(O)CCc1ccc(Oc2c(-c3ccc(O)cc3)sc3cc(O)ccc23)cc1 [Example 1, 3-(4-((6-hydroxy-2-(4-hydroxyphenyl)benzo[b]thiophen-3-yl)oxy)phenyl)propanoic acid] | 457
Cc1c(O)cccc1-c1sc2cc(O)ccc2c1Oc1ccc(/C=C/C(=O)O)cc1 [Example 16, (E)-3-(4-((6-hydroxy-2-(3-hydroxy-2-methyl-phenyl)benzo[b]-thiophen-3-yl)oxy)phenyl)-acrylic acid] | 128
Cn1nnnc1/C=C/c1ccc(Oc2c(-c3ccc(O)cc3)sc3cc(O)ccc23)cc1 [Example 54, (E)-2-(4-hydroxyphenyl)-3-(4-(2-(1-methyl-1H-tetrazol-5-yl)vinyl)-phenoxy)benzo[b]thiophen-6-ol] | 1
O=C(O)/C=C/c1ccc(Oc2c(-c3ccc(O)cc3)sc3c(F)c(O)c(F)cc23)cc1 [Example 38, (E)-3-(4-((5,7-difluoro-6-hydroxy-2-(4-hydroxyphenyl)benzo[b]-thiophen-3-yl)oxy)phenyl)acrylic acid] | 152
Cc1noc(C)c1-c1sc2cc(O)ccc2c1Oc1ccc(/C=C/C(=O)O)cc1 [Example 15, (E)-3-(4-((2-(3,5-dimethylisoxazol-4-yl)-6-hydroxybenzo-[b]thiophen-3-yl)oxy)-phenyl)acrylic acid] | 404

Reference: US8877801B2, “Compounds and compositions as selective estrogen receptor degraders” (Novartis AG, priority 2013, dated 2014)
